This is an account of results in ChEMBL document CHEMBL5131428, “Discovery of potent antiproliferative agents from selected oxygen heterocycles as EGFR tyrosine kinase inhibitors from the U.S. National Cancer Institute database by in silico screening and bioactivity evaluation” (Bioorg Med Chem Lett, 2022).

SMILES strings stand for the structures.

The test system of experiment [1] is A-431. Kind of experiment: Antiproliferative activity against human A-431 cells overexpressing EGFR assessed as cell survival at 10 uM relative to control. Format: functional. Conditions: read-out: Survival.
The subject of experiment [2] is A-431. The experiment in a line: Antiproliferative activity against human A-431 cells overexpressing EGFR assessed as cell growth inhibition by MTT assay. Type of experiment: functional, cell-based. (In general: Formazan colour is commonly taken as a measure of viable cells.)
The test system of the next experiment is HeLa. The experiment in a line: Antiproliferative activity against human HeLa cells assessed as cell growth inhibition by MTT assay. Type of experiment: functional, cell-based.
Experiment [3] concerns the target T1, Epidermal growth factor receptor (Homo sapiens, UniProt P00533). Kind of experiment: Inhibition of EGFR tyrosine kinase (unknown origin) preincubated for 5 mins followed by substrate addition and further incubated for 10 mins in presence of ATP by fluorescence based microplate reader analysis.
The target in experiment [4] is T1, Epidermal growth factor receptor. The experiment in a line: Inhibition of EGFR tyrosine kinase (unknown origin).

T1 sequence (P00533 whole entry): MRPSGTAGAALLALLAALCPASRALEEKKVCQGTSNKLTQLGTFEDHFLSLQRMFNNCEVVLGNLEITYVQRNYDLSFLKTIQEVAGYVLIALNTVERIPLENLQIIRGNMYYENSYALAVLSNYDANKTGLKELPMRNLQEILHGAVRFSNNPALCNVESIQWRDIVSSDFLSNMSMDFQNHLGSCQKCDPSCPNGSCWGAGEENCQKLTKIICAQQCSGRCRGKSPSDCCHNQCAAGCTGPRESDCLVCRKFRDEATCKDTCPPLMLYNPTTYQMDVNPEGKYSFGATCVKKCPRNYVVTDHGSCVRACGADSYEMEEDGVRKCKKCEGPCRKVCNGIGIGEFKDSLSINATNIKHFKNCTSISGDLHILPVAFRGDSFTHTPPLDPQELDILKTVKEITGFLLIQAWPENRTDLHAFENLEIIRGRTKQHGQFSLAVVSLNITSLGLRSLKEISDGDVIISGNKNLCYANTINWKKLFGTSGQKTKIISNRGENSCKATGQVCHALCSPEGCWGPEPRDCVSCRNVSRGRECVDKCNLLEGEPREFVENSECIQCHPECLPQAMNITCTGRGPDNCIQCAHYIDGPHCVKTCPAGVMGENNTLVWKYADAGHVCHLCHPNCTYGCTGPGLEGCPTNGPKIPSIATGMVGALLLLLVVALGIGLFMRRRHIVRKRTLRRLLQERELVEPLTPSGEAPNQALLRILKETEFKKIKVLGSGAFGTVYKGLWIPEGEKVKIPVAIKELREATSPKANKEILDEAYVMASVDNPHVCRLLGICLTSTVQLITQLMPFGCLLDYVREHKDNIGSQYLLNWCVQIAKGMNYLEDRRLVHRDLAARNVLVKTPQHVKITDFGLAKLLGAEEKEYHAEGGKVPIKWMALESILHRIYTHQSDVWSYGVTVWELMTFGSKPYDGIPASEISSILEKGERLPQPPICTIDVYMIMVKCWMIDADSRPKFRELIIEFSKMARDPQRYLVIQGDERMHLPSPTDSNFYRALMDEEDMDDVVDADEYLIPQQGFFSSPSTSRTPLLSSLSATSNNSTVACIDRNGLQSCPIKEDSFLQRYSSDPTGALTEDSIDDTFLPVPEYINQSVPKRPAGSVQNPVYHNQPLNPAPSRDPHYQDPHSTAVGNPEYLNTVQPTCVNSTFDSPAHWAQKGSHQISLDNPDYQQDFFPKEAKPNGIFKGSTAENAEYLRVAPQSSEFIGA

Broadly, the IC50 is the midpoint of a concentration-inhibition curve. With `C=CC(C)(C)c1c2c(c(O)c3c(=O)c4ccc(O)c(O)c4oc13)C=CC(C)(C)O2` [MACLURAXANTHONE], the viability at 10 µM with A-431 [1] was found to be 49%. For the same molecule, the IC50 with A-431 [2] is 2.84 µM; with HeLa, 0.95 µM.
With `O=c1c2cccc(O)c2oc2cccc(O)c12`, in experiment [3], the IC50 was 0.9 µM.
In the case of `COc1c(O)cc2oc3cc(O)c(CC=C(C)C)c(O)c3c(=O)c2c1CC=C(C)C` [MANGOSTIN], the viability at 10 µM in the experiment with A-431 [1] is below 6%. The IC50 with A-431 [2] came out at 7.2 µM; in the experiment with HeLa it was 12 µM.
Turning to `COC1=CC(=C(c2ccc(O)c(OC)c2)c2ccc(O)c(OC)c2)C=CC1=O`, the viability at 10 µM with A-431 [1] came out at 57%.
As to `COc1cccc2c1C(=O)C1=C(C2=O)c2c(O)cc(CO)cc2[C@@H](O)[C@@H]1O`, the figures for the IC50 (in experiment [4]; in the experiment with A-431 [2]; with HeLa) were 0.00654 µM, 6.04 µM and 1.74 µM, respectively. The viability at 10 µM in the experiment with A-431 [1] was below 6%.
With `O=C1c2ccccc2C(=O)c2c(O)c3c(c(O)c21)CCCC3`, the viability at 10 µM in the experiment on A-431 [1] was found to be 57%.
The same measure, in the same setting: under `O=c1c2ccccc2oc2cc([C@H](O)c3ccccc3)ccc12` stands 57%; under `Cc1c2cc(O)c(=O)cc-2oc2cc(O)c(O)cc12`, 57%.
Regarding `COc1ccc(-c2cc(=O)cc(-c3ccc(OC)cc3)o2)cc1`, the figures for the IC50 (in experiment [4]; in the experiment with A-431 [2]; in the experiment on HeLa) were 0.00015 µM, 3.81 µM and 8.12 µM, respectively. In addition, the viability at 10 µM in the experiment on A-431 [1] is below 6%.
The corresponding values for `CCc1ccc(C2=C(O)C(=O)C(c3ccc(CC)cc3)=C(O)C2=O)cc1` are 0.0302 µM, 17.7 µM, 17.3 µM and 17%.
